Active and inactive are the calls of the source.
What was measured:
[1] = target: Glyceraldehyde-3-phosphate dehydrogenase (Homo sapiens, UniProt P04406)
[2] = target: T1, Alkaline phosphatase, tissue-nonspecific isozyme (Homo sapiens, UniProt P05186); assay: human TNAP enzyme inhibitors, SAR follow-up, biochemical, luminescent, dose response (AID 1056)
T1 sequence (P05186 whole entry): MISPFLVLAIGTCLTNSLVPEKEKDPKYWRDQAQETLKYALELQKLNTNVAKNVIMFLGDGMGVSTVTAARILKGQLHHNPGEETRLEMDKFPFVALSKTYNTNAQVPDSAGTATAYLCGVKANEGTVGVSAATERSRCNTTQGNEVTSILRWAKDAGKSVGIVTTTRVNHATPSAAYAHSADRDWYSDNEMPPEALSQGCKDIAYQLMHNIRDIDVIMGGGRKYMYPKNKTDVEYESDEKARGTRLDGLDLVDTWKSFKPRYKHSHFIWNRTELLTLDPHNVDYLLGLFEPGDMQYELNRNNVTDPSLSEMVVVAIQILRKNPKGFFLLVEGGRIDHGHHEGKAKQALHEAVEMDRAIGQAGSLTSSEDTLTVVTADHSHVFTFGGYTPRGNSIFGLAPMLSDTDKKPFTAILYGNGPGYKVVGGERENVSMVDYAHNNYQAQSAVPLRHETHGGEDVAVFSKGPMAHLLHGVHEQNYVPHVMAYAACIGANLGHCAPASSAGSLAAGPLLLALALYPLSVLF

[3] = growth suppression of PTEN-null colon cells, dose response, cell-based, HCT116 PTEN knockout (AID 1047); format: functional;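 note: HCT116 colon tumor cells with PTEN knocked out; cells exposed to compound for 60 hours before readout; potency for loss of cell viability measured by luminescence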
[4] = growth suppression of beta-catenin-knockout colon cells, dose response, cell-based, HCT116, human colon tumor (AID 1045); format: functional;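 note: HCT116 colon tumor cells with beta catenin knocked out; cells exposed to compound for 60 hours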
[5] = target: Peroxisome proliferator-activated receptor gamma/Nuclear receptor coactivator 1 (Homo sapiens, UniProt P37231); format: functional;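 note: agonist potency as compounds enhance coactivator SRC-1 recruitment to PPARgamma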
[6] = target: Peroxisome proliferator-activated receptor gamma/Nuclear receptor coactivator 3 (Homo sapiens, UniProt P37231); format: functional;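 note: agonist potency for raising coactivator recruitment to the receptor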
[7] = target: Peroxisome proliferator-activated receptor gamma/Nuclear receptor coactivator 2 (Homo sapiens, UniProt P37231); format: functional;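 note: agonist potency for raising coactivator recruitment to the receptor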
Protein RecA = target: T2, Protein RecA (Mycobacterium tuberculosis, UniProt P9WHJ3); assay: Fluorescence Cell-Free Homogeneous Dose Retest to Identify Inhibitors of RecA-Intein Splicing Activity. [Related pubchem assays (depositor defined):AID2097, AID2223, AID489010, AID492950]; format: functional
T2 sequence (P9WHJ3 whole entry): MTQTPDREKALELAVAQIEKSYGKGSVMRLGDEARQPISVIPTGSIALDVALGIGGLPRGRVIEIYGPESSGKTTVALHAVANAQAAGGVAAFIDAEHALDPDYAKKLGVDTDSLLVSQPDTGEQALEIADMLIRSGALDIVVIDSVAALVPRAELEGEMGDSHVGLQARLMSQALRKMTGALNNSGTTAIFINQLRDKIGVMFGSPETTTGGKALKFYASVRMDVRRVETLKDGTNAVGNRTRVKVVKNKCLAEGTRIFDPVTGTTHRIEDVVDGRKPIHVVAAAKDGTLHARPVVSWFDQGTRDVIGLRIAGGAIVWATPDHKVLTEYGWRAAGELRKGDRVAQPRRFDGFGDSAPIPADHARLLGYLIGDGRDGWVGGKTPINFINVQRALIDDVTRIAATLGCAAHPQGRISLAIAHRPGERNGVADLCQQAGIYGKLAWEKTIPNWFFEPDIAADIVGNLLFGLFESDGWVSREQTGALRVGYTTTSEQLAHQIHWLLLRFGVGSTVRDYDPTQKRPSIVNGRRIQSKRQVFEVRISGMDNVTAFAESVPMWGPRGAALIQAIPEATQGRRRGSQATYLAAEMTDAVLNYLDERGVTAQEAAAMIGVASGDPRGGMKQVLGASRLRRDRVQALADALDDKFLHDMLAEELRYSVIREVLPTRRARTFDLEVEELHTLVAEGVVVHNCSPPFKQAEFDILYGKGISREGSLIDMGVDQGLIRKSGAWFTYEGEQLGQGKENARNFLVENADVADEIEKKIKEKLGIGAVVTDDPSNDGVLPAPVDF

[8] = target: T3, Replicative DNA helicase DnaB (Mycobacterium tuberculosis, UniProt P9WMR3); assay: DnaB intein splicing inhibitors, dose response, biochemical, cell-free fluorescence (AID 449749); format: functional
T3 sequence (P9WMR3 whole entry): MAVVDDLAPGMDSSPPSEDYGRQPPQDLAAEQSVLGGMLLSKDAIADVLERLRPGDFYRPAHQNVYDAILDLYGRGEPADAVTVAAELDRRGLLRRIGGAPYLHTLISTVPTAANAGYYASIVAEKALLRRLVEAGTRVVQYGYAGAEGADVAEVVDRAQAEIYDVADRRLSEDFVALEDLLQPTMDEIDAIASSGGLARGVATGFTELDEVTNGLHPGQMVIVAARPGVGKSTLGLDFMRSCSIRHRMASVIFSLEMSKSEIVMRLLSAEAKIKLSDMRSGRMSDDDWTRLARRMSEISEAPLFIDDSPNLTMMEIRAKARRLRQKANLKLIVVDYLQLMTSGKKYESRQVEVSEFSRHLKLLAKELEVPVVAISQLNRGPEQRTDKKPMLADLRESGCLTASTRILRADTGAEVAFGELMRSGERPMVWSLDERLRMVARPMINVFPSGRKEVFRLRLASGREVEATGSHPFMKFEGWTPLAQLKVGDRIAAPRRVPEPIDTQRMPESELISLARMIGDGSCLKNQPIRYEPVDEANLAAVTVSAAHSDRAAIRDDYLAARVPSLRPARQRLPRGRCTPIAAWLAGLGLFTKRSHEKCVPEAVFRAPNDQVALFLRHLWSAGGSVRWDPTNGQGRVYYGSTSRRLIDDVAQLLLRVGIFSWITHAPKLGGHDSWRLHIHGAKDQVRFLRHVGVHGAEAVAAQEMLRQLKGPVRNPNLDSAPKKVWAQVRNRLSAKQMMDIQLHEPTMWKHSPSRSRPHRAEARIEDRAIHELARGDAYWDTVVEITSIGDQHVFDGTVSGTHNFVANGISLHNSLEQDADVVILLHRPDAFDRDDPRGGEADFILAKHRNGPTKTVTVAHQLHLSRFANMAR

[9] = target: Heat shock protein HSP 90-alpha (Homo sapiens, UniProt P07900); format: functional, organism-based
[10] = target: T4, Histone-lysine N-methyltransferase NSD2 (Homo sapiens, UniProt O96028); format: biochemical
T4 sequence (O96028 whole entry): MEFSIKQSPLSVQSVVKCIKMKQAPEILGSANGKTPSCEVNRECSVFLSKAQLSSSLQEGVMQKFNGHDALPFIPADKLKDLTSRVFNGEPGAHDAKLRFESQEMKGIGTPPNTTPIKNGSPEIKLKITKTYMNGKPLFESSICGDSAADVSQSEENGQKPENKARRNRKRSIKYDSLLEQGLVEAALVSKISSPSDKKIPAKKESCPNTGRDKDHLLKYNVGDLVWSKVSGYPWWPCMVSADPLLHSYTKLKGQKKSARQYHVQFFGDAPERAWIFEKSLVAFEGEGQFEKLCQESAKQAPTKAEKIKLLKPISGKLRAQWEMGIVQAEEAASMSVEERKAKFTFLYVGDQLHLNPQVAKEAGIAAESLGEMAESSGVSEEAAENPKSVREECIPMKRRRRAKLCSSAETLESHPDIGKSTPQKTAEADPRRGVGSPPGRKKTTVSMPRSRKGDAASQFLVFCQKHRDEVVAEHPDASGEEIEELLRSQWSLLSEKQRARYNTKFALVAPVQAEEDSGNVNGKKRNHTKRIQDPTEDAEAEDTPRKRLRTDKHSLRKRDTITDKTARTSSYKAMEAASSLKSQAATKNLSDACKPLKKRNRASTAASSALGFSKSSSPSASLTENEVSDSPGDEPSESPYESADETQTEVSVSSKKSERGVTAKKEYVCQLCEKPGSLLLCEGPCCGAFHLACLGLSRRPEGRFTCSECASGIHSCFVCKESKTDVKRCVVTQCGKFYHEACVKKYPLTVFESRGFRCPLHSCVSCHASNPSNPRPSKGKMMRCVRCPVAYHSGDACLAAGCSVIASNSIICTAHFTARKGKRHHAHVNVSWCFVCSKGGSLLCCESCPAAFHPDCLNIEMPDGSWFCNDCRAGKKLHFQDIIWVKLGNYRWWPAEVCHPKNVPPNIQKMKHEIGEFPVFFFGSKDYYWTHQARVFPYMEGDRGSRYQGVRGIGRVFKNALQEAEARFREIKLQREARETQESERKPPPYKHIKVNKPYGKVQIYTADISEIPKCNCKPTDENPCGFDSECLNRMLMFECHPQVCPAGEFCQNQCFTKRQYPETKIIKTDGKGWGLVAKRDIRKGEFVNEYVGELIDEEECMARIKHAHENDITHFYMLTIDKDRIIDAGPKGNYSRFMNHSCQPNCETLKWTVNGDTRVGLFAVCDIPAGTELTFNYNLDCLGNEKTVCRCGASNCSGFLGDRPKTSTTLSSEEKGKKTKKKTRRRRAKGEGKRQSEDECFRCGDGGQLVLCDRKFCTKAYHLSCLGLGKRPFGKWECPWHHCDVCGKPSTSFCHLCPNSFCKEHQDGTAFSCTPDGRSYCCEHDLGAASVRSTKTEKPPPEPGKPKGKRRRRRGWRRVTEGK

[11] = HEp-2 cell cytotoxicity, dose response, cytotoxicity control for RSV inhibitor project, HTS (AID 2410); format: functional; conditions: human respiratory syncytial virus
Fatty acid synthase = Fatty acid synthase (Homo sapiens, UniProt P49327); assay: FAS thioesterase domain inhibitors, dose response, biochemical, kinetic fluorescence intensity (AID 624326); format: functional;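 note: rate of fluorescence rise from hydrolysis of a fluorogenic O-methyl fluorescein ester substrate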
[12] = microbe, parasite or virus in culture; format: functional; conditions: Mycobacterium tuberculosis
[13] = target: T5, Heat shock factor protein 1 (Mus musculus, UniProt P38532); assay: inhibition of MG132-induced HSE-luciferase signal, confirmation, cell-based, NIH3T3, luminescence, dose retest (AID 2382); format: functional;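 note: NIH3T3 fibroblasts with HSF1-driven luciferase reporter stressed by proteasome inhibitor MG132; luminescence from HSF1-driven luciferase expression after 8 hours of MG132 stress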
T5 sequence (P38532 whole entry): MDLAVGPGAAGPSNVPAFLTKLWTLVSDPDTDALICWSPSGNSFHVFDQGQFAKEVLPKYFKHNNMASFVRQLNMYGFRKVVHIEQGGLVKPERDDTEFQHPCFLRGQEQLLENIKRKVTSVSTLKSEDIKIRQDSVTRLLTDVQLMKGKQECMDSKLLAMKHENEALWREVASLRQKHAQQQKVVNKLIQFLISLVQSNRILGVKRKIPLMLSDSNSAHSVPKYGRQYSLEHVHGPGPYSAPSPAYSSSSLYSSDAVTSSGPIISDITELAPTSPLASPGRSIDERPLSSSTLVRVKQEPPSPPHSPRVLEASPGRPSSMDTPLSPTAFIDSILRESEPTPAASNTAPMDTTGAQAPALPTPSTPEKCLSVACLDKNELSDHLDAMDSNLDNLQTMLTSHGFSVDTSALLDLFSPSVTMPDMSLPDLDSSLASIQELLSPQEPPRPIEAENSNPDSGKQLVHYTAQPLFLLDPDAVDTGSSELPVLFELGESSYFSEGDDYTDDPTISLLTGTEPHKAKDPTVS

Peroxisome proliferator-activated receptor gamma/Nuclear receptor coactivator 2, sequence (P37231 whole entry): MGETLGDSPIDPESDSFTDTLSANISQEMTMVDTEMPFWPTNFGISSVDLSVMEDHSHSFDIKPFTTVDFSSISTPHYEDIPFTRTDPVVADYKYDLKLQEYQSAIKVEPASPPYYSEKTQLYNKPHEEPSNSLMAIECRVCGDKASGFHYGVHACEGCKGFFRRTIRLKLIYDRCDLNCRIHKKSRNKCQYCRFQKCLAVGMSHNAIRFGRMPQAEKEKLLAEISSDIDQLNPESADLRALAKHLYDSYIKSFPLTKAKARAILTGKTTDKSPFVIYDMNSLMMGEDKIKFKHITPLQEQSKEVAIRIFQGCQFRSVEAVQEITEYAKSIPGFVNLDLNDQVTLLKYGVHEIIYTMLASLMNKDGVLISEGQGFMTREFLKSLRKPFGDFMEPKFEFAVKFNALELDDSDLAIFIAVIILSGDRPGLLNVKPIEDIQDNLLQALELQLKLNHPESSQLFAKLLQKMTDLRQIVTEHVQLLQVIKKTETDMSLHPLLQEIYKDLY
Peroxisome proliferator-activated receptor gamma/Nuclear receptor coactivator 2, sequence (Q15596 whole entry, further chain): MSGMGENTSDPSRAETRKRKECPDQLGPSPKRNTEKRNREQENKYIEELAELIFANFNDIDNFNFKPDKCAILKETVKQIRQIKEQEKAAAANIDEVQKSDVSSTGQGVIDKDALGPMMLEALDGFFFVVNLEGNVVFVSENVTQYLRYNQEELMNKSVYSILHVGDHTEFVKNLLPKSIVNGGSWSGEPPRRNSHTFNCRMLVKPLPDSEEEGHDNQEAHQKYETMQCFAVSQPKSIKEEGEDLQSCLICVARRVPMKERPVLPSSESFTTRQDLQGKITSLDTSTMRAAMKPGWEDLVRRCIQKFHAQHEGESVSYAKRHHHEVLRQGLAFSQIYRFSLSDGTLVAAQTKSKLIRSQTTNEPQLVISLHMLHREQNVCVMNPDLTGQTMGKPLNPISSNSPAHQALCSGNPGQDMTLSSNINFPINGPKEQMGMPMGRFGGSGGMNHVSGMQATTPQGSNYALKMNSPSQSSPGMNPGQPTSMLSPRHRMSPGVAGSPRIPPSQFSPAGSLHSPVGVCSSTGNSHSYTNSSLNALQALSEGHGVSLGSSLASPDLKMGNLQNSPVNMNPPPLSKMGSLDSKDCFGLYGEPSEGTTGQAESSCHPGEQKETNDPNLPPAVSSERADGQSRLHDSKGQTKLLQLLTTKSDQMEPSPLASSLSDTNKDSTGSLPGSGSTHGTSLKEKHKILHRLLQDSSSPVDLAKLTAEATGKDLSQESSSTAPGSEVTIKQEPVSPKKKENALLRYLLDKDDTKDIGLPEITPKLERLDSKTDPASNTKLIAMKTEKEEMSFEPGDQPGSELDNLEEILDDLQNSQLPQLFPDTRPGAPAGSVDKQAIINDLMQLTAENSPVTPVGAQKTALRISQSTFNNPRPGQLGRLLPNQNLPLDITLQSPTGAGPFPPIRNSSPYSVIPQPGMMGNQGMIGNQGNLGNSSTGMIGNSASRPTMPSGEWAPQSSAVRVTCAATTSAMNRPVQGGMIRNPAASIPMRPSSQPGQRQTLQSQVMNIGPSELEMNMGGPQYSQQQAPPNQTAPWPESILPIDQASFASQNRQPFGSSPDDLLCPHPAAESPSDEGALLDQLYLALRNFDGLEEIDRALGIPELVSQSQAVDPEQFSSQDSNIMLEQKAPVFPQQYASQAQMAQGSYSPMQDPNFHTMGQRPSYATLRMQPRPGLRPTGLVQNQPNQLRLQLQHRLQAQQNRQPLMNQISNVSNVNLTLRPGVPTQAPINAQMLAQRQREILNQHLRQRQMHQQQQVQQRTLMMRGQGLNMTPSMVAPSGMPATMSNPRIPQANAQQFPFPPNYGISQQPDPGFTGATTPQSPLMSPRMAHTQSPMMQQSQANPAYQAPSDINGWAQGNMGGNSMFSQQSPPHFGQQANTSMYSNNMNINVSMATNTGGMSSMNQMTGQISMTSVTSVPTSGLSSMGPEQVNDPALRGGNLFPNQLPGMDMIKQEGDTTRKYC
Peroxisome proliferator-activated receptor gamma/Nuclear receptor coactivator 3, sequence (P37231 whole entry): as the sequence (P37231 whole entry) above
Peroxisome proliferator-activated receptor gamma/Nuclear receptor coactivator 3, sequence (Q9Y6Q9 whole entry, further chain): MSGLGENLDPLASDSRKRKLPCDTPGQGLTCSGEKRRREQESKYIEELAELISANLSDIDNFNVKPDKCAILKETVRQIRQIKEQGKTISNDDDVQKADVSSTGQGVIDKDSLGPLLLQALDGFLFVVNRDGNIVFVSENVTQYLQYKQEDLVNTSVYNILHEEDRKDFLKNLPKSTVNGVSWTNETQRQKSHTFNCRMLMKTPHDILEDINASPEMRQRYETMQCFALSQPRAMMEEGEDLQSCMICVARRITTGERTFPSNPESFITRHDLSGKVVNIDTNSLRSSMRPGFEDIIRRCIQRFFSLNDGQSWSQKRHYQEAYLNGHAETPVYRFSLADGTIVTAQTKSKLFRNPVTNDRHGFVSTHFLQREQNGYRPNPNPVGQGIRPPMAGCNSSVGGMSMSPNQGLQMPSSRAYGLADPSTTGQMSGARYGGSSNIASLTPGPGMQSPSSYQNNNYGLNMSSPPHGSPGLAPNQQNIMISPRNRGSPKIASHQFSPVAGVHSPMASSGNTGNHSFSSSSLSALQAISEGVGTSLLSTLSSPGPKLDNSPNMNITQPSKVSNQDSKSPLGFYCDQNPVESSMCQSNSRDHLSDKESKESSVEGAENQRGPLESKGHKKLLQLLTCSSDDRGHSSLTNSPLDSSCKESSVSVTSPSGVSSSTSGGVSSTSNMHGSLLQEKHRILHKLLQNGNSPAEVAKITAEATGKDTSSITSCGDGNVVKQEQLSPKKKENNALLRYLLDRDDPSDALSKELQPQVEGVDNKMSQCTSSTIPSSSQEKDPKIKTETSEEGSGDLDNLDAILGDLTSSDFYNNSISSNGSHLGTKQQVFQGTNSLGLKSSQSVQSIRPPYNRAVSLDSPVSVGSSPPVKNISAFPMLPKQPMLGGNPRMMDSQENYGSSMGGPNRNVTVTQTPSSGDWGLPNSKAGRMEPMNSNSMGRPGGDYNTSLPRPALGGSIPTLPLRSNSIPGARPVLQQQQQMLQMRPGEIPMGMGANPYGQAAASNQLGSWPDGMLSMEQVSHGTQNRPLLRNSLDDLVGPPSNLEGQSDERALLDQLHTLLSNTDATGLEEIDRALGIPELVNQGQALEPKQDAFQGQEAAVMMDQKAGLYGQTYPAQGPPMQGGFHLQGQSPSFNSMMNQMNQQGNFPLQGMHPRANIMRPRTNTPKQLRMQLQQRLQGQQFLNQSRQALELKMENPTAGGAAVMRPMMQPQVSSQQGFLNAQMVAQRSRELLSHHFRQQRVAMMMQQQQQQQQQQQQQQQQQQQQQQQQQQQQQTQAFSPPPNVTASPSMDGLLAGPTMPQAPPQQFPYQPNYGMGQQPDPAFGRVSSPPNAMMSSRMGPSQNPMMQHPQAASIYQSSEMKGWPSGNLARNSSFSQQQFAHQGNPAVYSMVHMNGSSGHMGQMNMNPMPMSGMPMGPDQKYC
Glyceraldehyde-3-phosphate dehydrogenase, sequence (P04406 whole entry): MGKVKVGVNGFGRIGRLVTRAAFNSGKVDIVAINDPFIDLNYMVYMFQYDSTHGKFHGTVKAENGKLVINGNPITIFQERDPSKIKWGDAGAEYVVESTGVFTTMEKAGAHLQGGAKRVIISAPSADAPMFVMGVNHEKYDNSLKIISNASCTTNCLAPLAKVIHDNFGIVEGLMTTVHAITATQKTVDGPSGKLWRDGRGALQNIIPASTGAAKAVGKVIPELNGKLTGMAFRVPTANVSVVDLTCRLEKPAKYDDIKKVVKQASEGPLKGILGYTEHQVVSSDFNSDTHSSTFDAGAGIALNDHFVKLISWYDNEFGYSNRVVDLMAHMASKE

CNC(=O)c1n[nH]c2c1COc1ccccc1-2
IC50 [1]: > 100 µM (not active) | IC50 [2]: > 100 µM (inactive)

CCOC(=O)c1[nH]c(CSc2nnc(-c3ccc(OC)cc3)o2)c(C(=O)OCC)c1C
EC50 [3]: 20.8 µM (active) | EC50 [4]: 21.6 µM (active)

Cc1ccccc1N=C(S)NC(NC(=O)COc1ccccc1)C(Cl)(Cl)Cl (configuration not stated)
EC50 [3]: 27.2 µM (active) | EC50 [4]: 31 µM (active)

CC(C)(C)c1ccc(-c2nnc3sc(-c4ccncc4)nn23)cc1
EC50 [5]: > 79.4 µM (not active) | EC50 [6]: > 79.4 µM (not active) | EC50 [7]: > 79.4 µM (not active)

CC(C)(C)NC(=O)CSc1nc(O)cc(=O)n1-c1ccccc1F
EC50 [5]: > 79.4 µM (not active) | EC50 [6]: > 79.4 µM (not active) | EC50 [7]: > 79.4 µM (not active)

COc1ccc(-c2noc(Cc3ccccc3OC)n2)cc1
EC50 [5]: > 79.4 µM (not active) | EC50 [6]: > 79.4 µM (not active) | EC50 [7]: > 79.4 µM (not active)

COc1ccc(-c2nnc(Sc3nc4ccccc4o3)c3ccccc23)cc1
EC50 (Protein RecA): 0.703 µM (active) | AC50 [8]: 3.8 µM (active) | EC50 [3]: 18.3 µM (active) | EC50 [4]: 16.2 µM (active)

CCOCCCNC1=C(Cl)C(=O)c2ccccc2C1=O
AC50 [9]: 10.6 µM (active) | AC50 [10]: 12.3 µM (active)

O=S(=O)(c1ccc2ccccc2c1)n1ccc2ccccc21
IC50 [1]: > 100 µM (not active) | IC50 [2]: > 100 µM (inactive)

O=C(c1cccc(C(F)(F)F)c1)N1CCN(c2cc(O)nnc2-c2ccccc2)CC1
EC50 [5]: > 79.4 µM (not active) | EC50 [6]: > 79.4 µM (not active) | EC50 [7]: > 79.4 µM (not active)

NCc1cc(-c2cccnc2)no1
IC50 [1]: > 100 µM (not active) | IC50 [2]: > 100 µM (inactive)

C#CCn1/c(=N/C(=O)c2ccc(Cl)s2)sc2cccc(OC)c21
EC50 [5]: 18.4 µM (not active) | EC50 [6]: 21.5 µM (not active) | EC50 [7]: 12.8 µM (not active) | CC50 [11]: 19.1 µM (active)

Cc1cc(N2CCN(c3cccc(C)c3C)CC2)nc(-c2ccccc2)n1
AC50 [9]: 1.66 µM (active)

CC1(C(=O)NS(=O)(=O)c2ccc(C#N)cc2)CCN1C(=O)c1ccc(C2CCCCC2)cc1 (configuration not stated)
IC50 (Fatty acid synthase): 5.24 µM (active)

c1cncc(-c2cc[nH]n2)c1
IC50 [1]: > 100 µM (not active) | IC50 [2]: > 100 µM (inactive)

COC(=O)Nc1ccc2c(c1)N(C(=O)CCN(C)C)c1ccccc1CC2
AC50 [10]: > 20 µM (inactive)

O=C(c1ccc(-c2ccccc2)c(F)c1)C1CCCN(C(=O)c2cncs2)C1 (configuration not stated)
AC50 [9]: 7.61 µM (active) | CC50 [12]: 32.9 µM (active) | EC50 [13]: > 195 µM (not active)

Cc1nn(-c2ccccc2)c2sc(C(=O)NNC(=O)COc3cccc4ccccc34)cc12
EC50 [3]: 19.2 µM (active) | EC50 [4]: 19.3 µM (active)
